In PubChem BioAssay AID2060491 (Molecular Pharmacology Branch, DTP, NCI, 2025):

Test system: 857933-349-R-J2-PDC complex spheroids, viability
Assay: Anticancer human tumor 857933-349-R-J2-PDC patient-derived colon adenocarcinoma cell line growth inhibition [GQUAD]
Conditions: for IC50: curve of first compound; for viability, T/C: stronger effect = lower value
Source text: DNA G-quadruplex Stabilizer Agents in Combinations in Complex Spheroids
A high-throughput screen of multi-cell type tumor spheroids was designed to identify active combinations of DNA G-quadruplex stabilizer agents and targeted small molecules. Complex spheroids include a stromal component modeled by human endothelial cells (HUVEC) and fibroblasts modeled by human mesenchymal stem cells (MSCs). The concentration ranges selected for each drug and investigational agent were based upon clinically achievable concentrations if the clinical Cmax of the agent was known.
Compounds. The drugs and investigational agents: pidnarulex (CX-5461; NSC782164), APTO-253 (NSC789042), BRACO-19 (NSC847499), peposertib (NSC802822), ceralasertib (NSC780249), elimusertib (NSC800525), camonsertib (NSC841442), AZD-1390 (NSC803789), olaparib (NSC753686), talazoparib (NSC767125), ART-558 (NSC835418), sotorasib (NSC818433), MRTX-1133 (NSC836407), SN-38 (NSC673596), topotecan (NSC609699), etoposide (NSC141540), doxorubicin (NSC123127), gemcitabine (NSC613327), 5-fluorouracil (NSC19893), paclitaxel (NSC125973), vemurafenib (NSC761431), panobinostat (NSC761190), R-306465 (JNJ-16241199; NSC773264), adavosertib (NSC754352), TP-3654 (NSC805149), carboplatin (NSC241240), KSQ-4279 (NSC840948), and staurosporine (NSC755774) were obtained from the National Cancer Institute (NCI) Developmental Therapeutics Program Chemical Repository (34). The FDA-approved anticancer drug set is available from the NCI Developmental Therapeutics Program. […] The stock solutions were prepared in dimethyl sulfoxide (DMSO, Sigma-Aldrich, St. Louis, MO, cat. D2650) at 800-fold the tested concentration and stored at -70 degrees C prior to their use. All drugs and investigational agents were tested over a range starting from a high concentration at or near the clinical Cmax and decreasing in half-log increments. If the clinical Cmax for an agent had not been determined, the highest concentration tested was 10 microM.
2.3 Cell Culture. All cells were maintained in an incubator at 37 degrees C and 5% CO2 with 95% humidity. The PDC lines were cultured according to standard operating procedures established by the NCI PDMR. All PDCs were thawed and cultured in Matrigel-coated flasks prepared with a working solution of 1X Ham's F-12 nutrient mix, without supplementation (Invitrogen, cat. 11765054), 100 U/mL penicillin-streptomycin (Invitrogen, cat. 15140122), and 2.5% Matrigel (Corning Inc., cat. 354248) for the first three passages. The 857933-349-R-J2-PDC line was cultured in 6C/Colon 1B media, which includes advanced DMEM/F-12 (Thermo Fisher Scientific, cat. 12634028), 10 mM HEPES (Thermo Fisher Scientific, cat. 15630080), 1X GlutaMAX supplement (Thermo Fisher Scientific, cat. 35050061), 0.1 mg/mL primocin (InvivoGen, cat. ant-pm-2), 10% defined fetal bovine serum, heat inactivated (HyClone Laboratories Inc., cat. SH30070.03HI), 50% L-WRN conditioned media (ATCC, cat. CRL-3276), 1.25 mM N-Acetyl-L-cysteine (Sigma-Aldrich, cat. A9165), 10 mM nicotinamide (Sigma-Aldrich, cat. N0636), 1X B-27 supplement (Thermo Fisher Scientific, cat. 17504044), 1X N-2 supplement (Thermo Fisher Scientific, cat. 17502048), 10 microM Y-27632 dihydrochloride (Tocris Bioscience, cat. 1254), and 50 ng/mL human EGF recombinant protein (Thermo Fisher Scientific, cat. PHG0311). The 485176-168-R4-J1-PDC line was cultured in Panc media, which includes all 6C/Colon 1B media components plus 100 ng/mL human FGF-10 (Thermo Fisher Scientific, cat. 100-26), 500 nM SB-431542 (Selleckchem, cat. S1067), and gastrin (Tocris, cat. 3006).
[…]

[1] = second compound 0.0316 µM, first compound 0.0316 µM
[2] = second compound 0.0316 µM, first compound 0.1 µM
[3] = second compound 0.0316 µM, first compound 0.316 µM
[4] = second compound 0.0316 µM, first compound 1 µM
[5] = second compound 0.0316 µM, first compound 3.16 µM
[6] = second compound 0.0316 µM, first compound 10 µM
[7] = second compound 0.1 µM, first compound 0.0316 µM
[8] = second compound 0.1 µM, first compound 0.1 µM
[9] = second compound 0.1 µM, first compound 0.316 µM
[10] = second compound 0.1 µM, first compound 1 µM
[11] = second compound 0.1 µM, first compound 3.16 µM
[12] = second compound 0.1 µM, first compound 10 µM
[13] = second compound 0.316 µM, first compound 0.0316 µM
[14] = second compound 0.316 µM, first compound 0.1 µM
[15] = second compound 0.316 µM, first compound 0.316 µM
[16] = second compound 0.316 µM, first compound 1 µM
[17] = second compound 0.316 µM, first compound 3.16 µM
[18] = second compound 0.316 µM, first compound 10 µM
[19] = second compound 1 µM, first compound 0.0316 µM
[20] = second compound 1 µM, first compound 0.1 µM
[21] = second compound 1 µM, first compound 0.316 µM
[22] = second compound 1 µM, first compound 1 µM
[23] = second compound 1 µM, first compound 3.16 µM
[24] = second compound 1 µM, first compound 10 µM
[25] = second compound 3.16 µM, first compound 0.0316 µM
[26] = second compound 3.16 µM, first compound 0.1 µM
[27] = second compound 3.16 µM, first compound 0.316 µM
[28] = second compound 3.16 µM, first compound 1 µM
[29] = second compound 3.16 µM, first compound 3.16 µM
[30] = second compound 3.16 µM, first compound 10 µM
[31] = second compound 10 µM, first compound 0.0316 µM
[32] = second compound 10 µM, first compound 0.1 µM
[33] = second compound 10 µM, first compound 0.316 µM
[34] = second compound 10 µM, first compound 1 µM
[35] = second compound 10 µM, first compound 3.16 µM
[36] = second compound 10 µM, first compound 10 µM
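Also: spheroids exposed to compounds for one week before readout.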
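For viability, T/C in this document: percent viability relative to vehicle DMSO wells taken as 100%.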

Compound: C#Cc1c(F)ccc2cc(O)cc(-c3ncc4c(N5CC6CCC(C5)N6)nc(OCC56CCCN5CC(F)C6)nc4c3F)c12 (stereo unspecified) + CN(C)c1ccc(Nc2c3ccc(NC(=O)CCN4CCCC4)cc3nc3cc(NC(=O)CCN4CCCC4)ccc23)cc1
- IC50 (second compound 0.0316 µM): > 10 µM
- IC50 (second compound 0.1 µM): > 10 µM
- IC50 (second compound 0.316 µM): > 10 µM
- IC50 (second compound 1 µM): > 10 µM
- IC50 (second compound 3.16 µM): > 10 µM
- IC50 (second compound 10 µM): > 10 µM
- viability, T/C [1]: 111%
- viability, T/C [2]: 96.2%
- viability, T/C [3]: 98.1%
- viability, T/C [4]: 96.8%
- viability, T/C [5]: 102%
- viability, T/C [6]: 90.3%
- viability, T/C [7]: 104%
- viability, T/C [8]: 104%
- viability, T/C [9]: 96.1%
- viability, T/C [10]: 101%
- viability, T/C [11]: 94.3%
- viability, T/C [12]: 94.6%
- viability, T/C [13]: 99.1%
- viability, T/C [14]: 97%
- viability, T/C [15]: 95.5%
- viability, T/C [16]: 92%
- viability, T/C [17]: 96.2%
- viability, T/C [18]: 87%
- viability, T/C [19]: 97.1%
- viability, T/C [20]: 88.7%
- viability, T/C [21]: 91.3%
- viability, T/C [22]: 77.8%
- viability, T/C [23]: 91.4%
- viability, T/C [24]: 80.3%
- viability, T/C [25]: 81.6%
- viability, T/C [26]: 75.1%
- viability, T/C [27]: 80.6%
- viability, T/C [28]: 69.7%
- viability, T/C [29]: 78.2%
- viability, T/C [30]: 74.7%
- viability, T/C [31]: 67.4%
- viability, T/C [32]: 67.5%
- viability, T/C [33]: 63.5%
- viability, T/C [34]: 68.8%
- viability, T/C [35]: 71%
- viability, T/C [36]: 58.9%

Compound: CCCS(=O)(=O)Nc1ccc(F)c(C(=O)c2c[nH]c3ncc(-c4ccc(Cl)cc4)cc23)c1F + CN(C)c1ccc(Nc2c3ccc(NC(=O)CCN4CCCC4)cc3nc3cc(NC(=O)CCN4CCCC4)ccc23)cc1
- IC50 (second compound 0.0316 µM): 5.65 µM
- IC50 (second compound 0.1 µM): 5.53 µM
- IC50 (second compound 0.316 µM): 5.65 µM
- IC50 (second compound 1 µM): 5.45 µM
- IC50 (second compound 3.16 µM): 5.03 µM
- IC50 (second compound 10 µM): 3.18 µM
- viability, T/C [1]: 108%
- viability, T/C [2]: 101%
- viability, T/C [3]: 102%
- viability, T/C [4]: 96.8%
- viability, T/C [5]: 95.5%
- viability, T/C [6]: 5.26%
- viability, T/C [7]: 110%
- viability, T/C [8]: 106%
- viability, T/C [9]: 96.4%
- viability, T/C [10]: 106%
- viability, T/C [11]: 92.5%
- viability, T/C [12]: 5.04%
- viability, T/C [13]: 104%
- viability, T/C [14]: 101%
- viability, T/C [15]: 96.5%
- viability, T/C [16]: 96.7%
- viability, T/C [17]: 95.3%
- viability, T/C [18]: 5.41%
- viability, T/C [19]: 101%
- viability, T/C [20]: 89.6%
- viability, T/C [21]: 96.7%
- viability, T/C [22]: 93.1%
- viability, T/C [23]: 89.9%
- viability, T/C [24]: 5.58%
- viability, T/C [25]: 83.5%
- viability, T/C [26]: 73.5%
- viability, T/C [27]: 81.2%
- viability, T/C [28]: 75.8%
- viability, T/C [29]: 79.7%
- viability, T/C [30]: 7.65%
- viability, T/C [31]: 63.1%
- viability, T/C [32]: 66.5%
- viability, T/C [33]: 56.8%
- viability, T/C [34]: 59.1%
- viability, T/C [35]: 51%
- viability, T/C [36]: 12.3%

Compound: COc1cccc2c1C(=O)c1c(O)c3c(c(O)c1C2=O)CC(O)(C(=O)CO)CC3OC1CC(N)C(O)C(C)O1 (stereo unspecified) + CN(C)c1ccc(Nc2c3ccc(NC(=O)CCN4CCCC4)cc3nc3cc(NC(=O)CCN4CCCC4)ccc23)cc1
- IC50 (second compound 0.0316 µM): 0.917 µM
- IC50 (second compound 0.1 µM): 0.828 µM
- IC50 (second compound 0.316 µM): 0.663 µM
- IC50 (second compound 1 µM): 0.711 µM
- IC50 (second compound 3.16 µM): 0.739 µM
- IC50 (second compound 10 µM): 0.978 µM
- viability, T/C [1]: 100%
- viability, T/C [2]: 97.1%
- viability, T/C [3]: 76.7%
- viability, T/C [4]: 52.2%
- viability, T/C [5]: 8.8%
- viability, T/C [6]: 0.64%
- viability, T/C [7]: 99.2%
- viability, T/C [8]: 92.8%
- viability, T/C [9]: 79.3%
- viability, T/C [10]: 45.4%
- viability, T/C [11]: 9.85%
- viability, T/C [12]: 0.72%
- viability, T/C [13]: 102%
- viability, T/C [14]: 95.8%
- viability, T/C [15]: 72.7%
- viability, T/C [16]: 37.3%
- viability, T/C [17]: 10.8%
- viability, T/C [18]: 0.64%
- viability, T/C [19]: 103%
- viability, T/C [20]: 86%
- viability, T/C [21]: 76.2%
- viability, T/C [22]: 39.6%
- viability, T/C [23]: 12.5%
- viability, T/C [24]: 0.68%
- viability, T/C [25]: 91.6%
- viability, T/C [26]: 76.8%
- viability, T/C [27]: 73.7%
- viability, T/C [28]: 42.6%
- viability, T/C [29]: 11.9%
- viability, T/C [30]: 0.97%
- viability, T/C [31]: 70.7%
- viability, T/C [32]: 73.4%
- viability, T/C [33]: 67.1%
- viability, T/C [34]: 50.1%
- viability, T/C [35]: 9.58%
- viability, T/C [36]: 1.5%
